Experimental data published in PMC3385710, “Assessment of 5-HT7 Receptor Agonists Selectivity Using Nociceptive and Thermoregulation Tests in Knockout versus Wild-Type Mice” (Advances in Pharmacological Sciences, 2012).

Experiments:
rats = tested on: rats; parameters: method as in PMID 16098671; settings: cited from earlier work
wild-type mice [1] = experiment: Formalin test in wild-type mice; assay type: in vivo; settings: 15-30 min after formalin, versus vehicle
Source text: (§1) Formaldehyde (37 wt.% solution) was purchased from Panreac (Spain) and dissolved in physiological saline. Drugs used for treatments were AS-19 (dimethyl-[5-(1,3,5-tri-methyl-1H-pyrazol-4-yl)-1,2,3,4-tetrahydro-naphthalen-2(S)-yl]-amine), E-55888 (dimethyl-{2-[3-(1,3,5-trimethyl-1H-pyrazol-4-yl)-phenyl]-ethyl}-amine dihydrochloride), and E-57431 (2-(2-(dimethylamino)ethyl)-4-(1,3,5-tri-methyl-1H-pyrazol-4-yl)phenol). AS-19 is a potent selective 5-HT7 receptor agonist commercially available from Tocris Bioscience (UK), whereas E-55888 and E-57431 are 5-HT7 receptor agonists developed by ESTEVE Laboratories (Barcelona, Spain). All three 5-HT7 receptor agonists were synthesized for the purpose of this study at ESTEVE, dissolved in aqueous solutions containing 0.5% (hydroxypropyl) methyl cellulose (Sigma-Aldrich, Spain) and administered in a volume of 5 ml/kg through the subcutaneous (s.c.) route. Doses of drugs (referred to their salt forms) and time of evaluation were selected based on previous studies and on pilot experiments in models used in this study. All treatments were performed under blind conditions in independent groups of mice and behavioral evaluation was done 30 min after drug administration.
(§2) Formalin (20 μL of a 2.5% formalin solution; 0.92% of formaldehyde) was injected into the dorsal surface on the right hind paw, as previously described. […] Mice were placed on a paper surface surrounded by a plexiglas cylinder (20 × 25 cm) and the time spent licking and biting the injected paw was measured using a chronometer. A time course of the licking/biting behaviors was monitored during 45 minutes after formalin injection to evaluate possible differences between genotypes. Drug effects were quantified at 0–5 min (phase I) and 15–30 min (phase II) after formalin injection, two periods of time in which the formalin-induced licking and biting time was high enough to test antinociceptive effects of drugs.

[2] = tested on: 5-HT7 receptor knockout mice; experiment: Formalin test in 5-HT7 receptor knockout mice; assay type: in vivo; settings: 15-30 min after formalin, versus vehicle
Source text: as §1, §2

wild-type mice [3] = experiment: Rectal (body) temperature in wild-type mice; assay type: in vivo; settings: for Effect on body temperature: 30 min after administration
Source text: as §1
(§3) The body temperature was recorded using a precision thermometer (YSI 4600) equipped with a flexible probe (YSI 402). This probe was lubricated with vaseline and inserted 2 cm into the rectum. Temperature recordings were made 20 s following insertion of the probe, as previously described.

[4] = tested on: 5-HT7 receptor knockout mice; experiment: Rectal (body) temperature in 5-HT7 receptor knockout mice; assay type: in vivo; settings: for Effect on body temperature: 30 min after administration
Source text: as §1, §3

h5-HT1A = settings: cited from earlier work; for Affinity ratio versus 5-HT7 receptors (Ki h5-HT1A/Ki 5-HT7): number-fold higher for 5-HT7 than for the tested receptor; for Ki: radioligand binding, read-out: Affinity (Ki (nM)) h5-HT1A
r5-HT1B = tested on: r5-HT1B; parameters: method as in PMID 19118950, PMID 20399562; settings: cited from earlier work; for Ki: radioligand binding, read-out: Affinity (Ki (nM)) r5-HT1B
h5-HT1D = settings: cited from earlier work; for Affinity ratio versus 5-HT7 receptors (Ki h5-HT1D/Ki 5-HT7): number-fold higher for 5-HT7 than for the tested receptor; for Ki: radioligand binding, read-out: Affinity (Ki (nM)) h5-HT1D
h5-HT2A = target: h5-HT2A; parameters: method as in PMID 19118950, PMID 20399562; settings: cited from earlier work; for Ki: radioligand binding, read-out: Affinity (Ki (nM)) h5-HT2A
h5-HT2B = target: h5-HT2B; parameters: method as in PMID 19118950, PMID 20399562; settings: radioligand binding; read-out: Affinity (Ki (nM)) h5-HT2B; cited from earlier work
h5-HT2C = target: h5-HT2C; parameters: method as in PMID 19118950, PMID 20399562; settings: radioligand binding; read-out: Affinity (Ki (nM)) h5-HT2C; cited from earlier work
h5-HT3 = target: h5-HT3; parameters: method as in PMID 19118950, PMID 20399562; settings: radioligand binding; read-out: Affinity (Ki (nM)) h5-HT3; cited from earlier work
gp5-HT4 = target: gp5-HT4; parameters: method as in PMID 19118950, PMID 20399562; settings: radioligand binding; read-out: Affinity (Ki (nM)) gp5-HT4; cited from earlier work
h5-HT5A = tested on: h5-HT5A; parameters: method as in PMID 19118950, PMID 20399562; settings: cited from earlier work; for Ki: radioligand binding, read-out: Affinity (Ki (nM)) h5-HT5A
h5-HT6 = target: h5-HT6; parameters: method as in PMID 19118950, PMID 20399562; settings: radioligand binding; read-out: Affinity (Ki (nM)) h5-HT6; cited from earlier work
h5-HT7 [5] = target: h5-HT7; parameters: method as in PMID 19118950, PMID 20399562; settings: radioligand binding; read-out: Affinity (Ki (nM)) h5-HT7; cited from earlier work
h5-HT transporter (SERT) = target: h5-HT transporter (SERT); parameters: method as in PMID 19118950, PMID 20399562; settings: radioligand binding; read-out: Affinity (Ki (nM)) h5-HT transporter (SERT); cited from earlier work
Other receptors = target: Other receptors; parameters: method as in PMID 19118950, PMID 20399562; settings: panel of other receptors assayed; read-out: Affinity (Ki (nM)) Other receptors; cited from earlier work
h5-HT7 [6] = tested on: h5-HT7; parameters: method as in PMID 19118950, PMID 20399562; settings: HEK-293F/h5-HT7 cells, cited from earlier work; for EC50: read-out: EC50, cAMP formation; for Maximal effect (E max), cAMP formation: relative to that of 5-HT
h5-HT4e = target: h5-HT4e; parameters: method as in PMID 19118950, PMID 20399562; settings: radioligand binding; read-out: Affinity (Ki (nM)) h5-HT4e; cited from earlier work
dopamine D2 receptor = tested on: dopamine D2 receptor; parameters: method as in PMID 17649988; settings: cited from earlier work
[7] = tested on: 5-HT1B, 5-HT2B, 5-HT2C, and 5-HT5A; parameters: method as in PMID 20600619; settings: cited from earlier work
5-HT1A = tested on: 5-HT1A; parameters: method as in PMID 14741267; settings: cited from earlier work
[8] = number-fold higher for 5-HT7 than for the tested receptor

| Structure (SMILES) | Effect on body temperature (wild-type mice [3]; 20 mg/kg s.c.) | Effect on body temperature ([4]; 20 mg/kg s.c.) | Ki (h5-HT1A) | Ki (r5-HT1B) | Ki (h5-HT1D) | Ki (h5-HT2A) | Ki (h5-HT2B) | Ki (h5-HT2C) | Ki (h5-HT3) | Ki (h5-HT5A) | Ki (h5-HT6) | Ki (h5-HT7 [5]) | Ki (h5-HT transporter (SERT)) | Ki (Other receptors) | EC50 (h5-HT7 [6]) | Maximal effect (E max), cAMP formation (h5-HT7 [6]) | other results |
| --- | --- | --- | --- | --- | --- | --- | --- | --- | --- | --- | --- | --- | --- | --- | --- | --- | --- |
| NCCc1c[nH]c2ccc(C(N)=O)cc12 [5-carboxamidotryptamine] | – | – | – | – | – | – | – | – | – | – | – | – | – | – | – | – | Phase II formalin-induced nociceptive behavior (rats; intraplantar or spinal administration): increased |
| Cc1nn(C)c(C)c1-c1cccc2c1CC[C@H](N(C)C)C2 [AS-19, dimethyl-[5-(1,3,5-tri-methyl-1H-pyrazol-4-yl)-1,2,3,4-tetrahydro-naphthalen-2(S)-yl]-amine, reference compound] | significantly reduced | significantly reduced | 89.7 nM | 490 nM | 6.6 nM | > 1000 nM | > 1000 nM | > 1000 nM | > 1000 nM | 98.5 nM | > 1000 nM | 0.6 nM | > 1000 nM | > 1000 nM | 9 ± 1 nM | 77% | Formalin phase II licking/biting time (wild-type mice [1]; 10 mg/kg s.c.): significant reduction; Formalin phase II licking/biting time significantly reduced ([2]; 10 mg/kg s.c.): not; Effect on body temperature (wild-type mice [3]; 10 mg/kg s.c.): did not significantly change; Body temperature reduction (wild-type mice [3]; 20 mg/kg s.c.): 3.8 °C; Effect on body temperature ([4]; 10 mg/kg s.c.): did not significantly change; Body temperature reduction ([4]; 20 mg/kg s.c.): 2.4 °C; Affinity ratio versus 5-HT7 receptors (Ki h5-HT1A/Ki 5-HT7) (h5-HT1A): 149.5 x; Affinity ratio versus 5-HT7 receptors (Ki r5-HT1B/Ki 5-HT7) (r5-HT1B; [8]): 816.6 x; Affinity for 5-HT7 higher than for 5-HT1D (h5-HT1D): 11 fold; Affinity ratio versus 5-HT7 receptors (Ki h5-HT1D/Ki 5-HT7) (h5-HT1D): 11 x; Ki (gp5-HT4): > 1000 nM; Affinity ratio versus 5-HT7 receptors (Ki h5-HT5A/Ki 5-HT7) (h5-HT5A; [8]): 164.2 x |
| Cc1nn(C)c(C)c1-c1cccc(CCN(C)C)c1.Cl.Cl [E-55888, dimethyl-{2-[3-(1,3,5-trimethyl-1H-pyrazol-4-yl)-phenyl]-ethyl}-amine dihydrochloride] | did not significantly change | did not significantly change | 700 nM | > 1000 nM | > 1000 nM | > 1000 nM | > 1000 nM | > 1000 nM | > 1000 nM | > 1000 nM | > 1000 nM | 2.5 nM | > 1000 nM | > 1000 nM | 16 ± 1 nM | 99 ± 1% | Formalin phase II licking/biting time (wild-type mice [1]; 20 mg/kg s.c.): significant reduction; Formalin phase II licking/biting time significantly reduced ([2]; 20 mg/kg s.c.): not; Affinity for 5-HT7 higher than for 5-HT1A (h5-HT1A): 280 fold; Affinity ratio versus 5-HT7 receptors (Ki h5-HT1A/Ki 5-HT7) (h5-HT1A): 280 x; Ki (h5-HT4e): > 1000 nM |
| Cc1nn(C)c(C)c1-c1ccc(O)c(CCN(C)C)c1 [E-57431, 2-(2-(dimethylamino)ethyl)-4-(1,3,5-tri-methyl-1H-pyrazol-4-yl)phenol] | significantly reduced | significantly reduced | > 1000 nM | > 1000 nM | 53 nM | 560 nM | > 1000 nM | > 1000 nM | > 1000 nM | > 1000 nM | > 1000 nM | 0.47 nM | > 1000 nM | > 1000 nM | 21.5 ± 1 nM | 94.5 ± 1% | Formalin phase II licking/biting time (wild-type mice [1]; 10 mg/kg s.c.): significant reduction; Formalin phase II licking/biting time significantly reduced ([2]; 10 mg/kg s.c.): not; Effect on body temperature (wild-type mice [3]; 10 mg/kg s.c.): did not significantly change; Body temperature reduction (wild-type mice [3]; 20 mg/kg s.c.): 1.1 °C; Effect on body temperature ([4]; 10 mg/kg s.c.): did not significantly change; Body temperature reduction ([4]; 20 mg/kg s.c.): 2.3 °C; Affinity for 5-HT7 higher than for 5-HT1D (h5-HT1D): 112.7 fold; Affinity ratio versus 5-HT7 receptors (Ki h5-HT1D/Ki 5-HT7) (h5-HT1D): 112.7 x; Affinity ratio versus 5-HT7 receptors (Ki h5-HT2A/Ki 5-HT7) (h5-HT2A; [8]): 1191.5 x; Ki (h5-HT4e): > 1000 nM; Ki (gp5-HT4): > 1000 nM |
| N#Cc1ccc(CNC(=O)CCCCCN2CCN(c3ccccc3-c3ccccc3)CC2)cc1 [LP-211] | – | – | – | – | – | – | – | – | – | – | – | – | – | – | – | – | Affinity for 5-HT7 higher than for dopamine D2 receptor (dopamine D2 receptor): 33 fold; Affinity for 5-HT7 higher than for 5-HT1B, 5-HT2B, 5-HT2C, and 5-HT5A [7]: 5-14 fold |
| CN(C)CCSc1cccc(-c2ccccc2)n1 [MSD-5a] | – | – | – | – | – | – | – | – | – | – | – | – | – | – | – | – | Affinity for 5-HT7 higher than for 5-HT1A (5-HT1A): 28.6 fold |
| CC1CCN(CC[C@H]2CCCN2S(=O)(=O)c2cccc(O)c2)CC1 [SB-269970, (R)-3-(2-(2-(4-methylpiperidin-1-yl)-ethyl)pyrrolidine-1-sulfonyl)phenol] | – | – | – | – | – | – | – | – | – | – | – | – | – | – | – | – | Effect on 5-carboxamidotryptamine-induced increase of phase II formalin nociceptive behavior (rats): significantly reversed |
